In BindingDB's records for patent US9278914 (University of Tennessee Research Foundation, 2016):

Target: Cytochrome P450 2C9 (Homo sapiens, UniProt P11712)
Assay: In Vitro CYP Inhibition Assay
Settings: 37 °C

Chain of Cytochrome P450 2C9 (P11712 whole entry): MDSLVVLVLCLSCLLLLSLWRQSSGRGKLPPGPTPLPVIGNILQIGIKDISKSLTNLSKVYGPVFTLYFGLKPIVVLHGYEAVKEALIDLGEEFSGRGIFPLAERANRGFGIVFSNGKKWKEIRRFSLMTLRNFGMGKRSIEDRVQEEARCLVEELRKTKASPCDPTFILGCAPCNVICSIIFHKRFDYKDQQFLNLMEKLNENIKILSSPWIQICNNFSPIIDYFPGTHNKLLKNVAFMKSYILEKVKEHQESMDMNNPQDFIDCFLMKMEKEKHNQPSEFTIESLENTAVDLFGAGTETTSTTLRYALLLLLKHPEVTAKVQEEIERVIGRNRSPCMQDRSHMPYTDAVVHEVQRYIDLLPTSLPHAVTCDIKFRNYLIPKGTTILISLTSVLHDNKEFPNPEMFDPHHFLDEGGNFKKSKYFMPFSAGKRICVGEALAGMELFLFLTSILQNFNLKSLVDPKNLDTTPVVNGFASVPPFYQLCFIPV

SMILES: C[C@](O)(COc1ccc(Cl)c(F)c1)C(=O)Nc1ccc(C#N)c(C(F)(F)F)c1 [US9278914, S-II]
- IC50: > 20 µM
